In the case of `C/C(=C\c1ccc(Cc2cccnc2)cc1)C(=O)O`, the melting point fell in the range of 164 to 166 °C. Turning to `COc1ccc(-c2cc3cc(OC)cc(C=C(Cl)Cl)c3o2)cc1`, the melting point was 129 to 131 °C. The compound `Cc1ccc2occ(CC3=NOS(=O)N3)c2c1` (centres undefined) had a melting point of 152 to 153 °C. `CC(C)[C@H](NC(=O)N(C)Cc1csc(N)n1)C(=O)N[C@@H](Cc1ccccc1)[C@H](O)[C@H](O)[C@H](Cc1ccccc1)NC(=O)OC(C)(C)C` showed a melting point of 103 to 107 °C. For `CN(C)CCNc1ccc(S(C)(=O)=O)cc1[N+](=O)[O-]`, the melting point was in the range of 130 to 131 °C.

On to `COC(=O)c1ccc(Cc2cn(C)c3ccc(C(=O)OC)cc23)c(OC)c1`, for which the melting point was 137 to 140 °C. As to `COc1cc2ncnc(Nc3cccc(C)c3)c2c(N)c1OC`, the melting point lay in the range of 181 to 182 °C. `COc1cc(CO)cc(F)n1` yielded a melting point of 46 to 49 °C. Consider `COc1ccc(CSc2nnc(-c3ccn4ncnc4c3)o2)cc1C#N`, for which the melting point was in the range of 247 to 248 °C. As for `CCCCCn1c2ccc(C(=S)N3CCCCC3)cc2c2ccc(OC)cc21`, the melting point fell in the range of 116 to 118 °C. Consider `Nc1c(Cl)ncnc1Nn1cccc1`, for which the melting point lay within 130 to 132 °C. Consider `CCC(Cl)c1ccc(CCNS(=O)(=O)c2ccc(Cl)cc2)cc1` (centres undefined), for which the melting point lay within 90 to 91 °C. As to `COCCOc1cc2ncnc(NC3=CC(=O)C(N(C)c4ccc(OC)cc4)=CC3=O)c2cc1OC`, the melting point was in the range of 197 to 198 °C.

Take `CCOC(=O)c1cnc(Nc2ccccc2OC)[nH]c1=O`: the melting point lay within 217 to 219 °C. In the case of `CCCCCCCCCCCCCCCCCNC(=O)O[C@@H]1CCCO[C@H]1COc1cc(CCCCO)on1` (relative stereo), the melting point was 86 to 87 °C. To `COc1cc(C2C3=C(COC3=O)N(Cc3ccc([N+](=O)[O-])cc3)c3cc4c(cc32)OCO4)cc(OC)c1O` (centres undefined) belongs 193 °C; to `O=c1oc(-c2cccc(Cl)c2)cc(O)c1SCCCCc1ccccc1`, 123 to 124 °C.

Turning to `Cc1cnn2c(-c3cccc(-c4ccccc4C#N)c3)cnc2n1`, the melting point was 211 to 216 °C. Compound `CCCC(CCC)C(=O)NCC(=O)NCCCCCNC(=O)n1cc(F)c(=O)[nH]c1=O` came in with a melting point of 117 to 118 °C. Next, `O=C1CCOc2c1ccc1c2OC(CN2CC=C(c3c[nH]c4ccccc34)CC2)CO1` (centres undefined): 210 °C; `CCCCN(CCCC)c1ccc(C=C2C(=C(C#N)C#N)c3ccccc3C2=C(C#N)C#N)c(OC)c1`: 195 to 198 °C. `CCOC(=O)C1=C(O)C(=O)NCC1` returned a melting point of 142 to 148 °C. To `COc1nc2ccccc2nc1NC(=O)N1CCN(c2ccc(C(C)=O)cc2)CC1` belongs 198 to 200 °C.

On to `CCCN1CCN(Cc2nc(-c3ccc4c(c3)Nc3ccccc3S4)cs2)CC1`, for which the melting point lay in the range of 189 to 190 °C. The compound `COc1cc2cc3c(=O)c(C#N)c[nH]c3cc2cc1O` had a melting point of more than 300 °C. As to `COc1cc(C)nc(CNC(=O)NS(=O)(=O)c2ccccc2S(=O)(=O)N(C)C)n1`, the melting point was in the range of 153 to 156 °C.

For the compound `CC(C)Sc1sc(C(=O)N2CCCC2)c2c1-c1oncc1C(C)(C)C2`, the melting point was in the range of 88 to 91 °C.

`Nc1c2c(nc3ccccc13)C1C=CC2C1` (centres undefined) returned a melting point of 123 °C. Next, `OCc1cccc(-c2ccc3nc(-c4ccc(Cl)cc4)cn3c2)c1F`: 200 to 202 °C. With `COc1cc(C2=C(c3c[nH]c4ncccc34)C(=O)NC2=O)cc(OC)c1OC`, the melting point turned out to be 162 °C. As to `CCC=C1SC(=S)N(CC(=O)O)C1=O`, the melting point lay in the range of 138 to 140 °C. `COc1cc(Cl)c([N+](=O)[O-])cc1C(=O)NCCC(=O)O` came in with a melting point of 170 to 172 °C. In turn, `C=C(C)[C@@H]1CC=C(OC(=O)C2CCC(C(=O)OC3=CC[C@@H](C(=C)C)CC3)CC2)CC1` (some centres undefined) displayed a melting point of 89 °C. The compound `CC(=O)N1CC(C)C(=O)N(C(C)=O)C1=O` (centres undefined) showed a melting point of 130 to 131 °C. `CC1(C)OC(=O)C(Oc2ccc(Br)cc2)=C1c1ccc(S(C)(=O)=O)cc1` registered a melting point of 150 to 152 °C.

In the case of `CCCCN1CC=C(c2c[nH]c3ccc(NS(C)(=O)=O)cc23)CC1`, the melting point was 202 to 204 °C. Next, `CCCCCCCCCCCCCCCCCCCCOC(=O)P(=O)(O)O`: 87 to 89 °C.

Compound `Cc1ccc(NC(=O)c2ccc(C#N)cc2)cc1NC(=O)c1ccc(O)cc1` gave a melting point of 297 to 299 °C.

Consider `CCOC(=O)c1cnn(-c2ccccn2)c1N`, for which the melting point was in the range of 92 to 93 °C. `O=c1[nH]c2ccccc2n1CCCN1CCN(C(c2ccccc2)c2ccccc2Cl)CC1` (centres undefined) came in with a melting point of 139 °C. Regarding `Cc1ccc(-c2cn3ccc(Cl)cc3n2)cc1C`, the melting point was found to be 144 °C. For the compound `CC12CCC3c4c(O)cc(O)cc4CCC3C1CCC2=O` (centres undefined), the melting point was in the range of 245 to 247 °C. In turn, `O=C(Nc1ccc2cc(CN3CCCCCC3)cnc2c1)c1ccc(-c2ccc(Cl)cc2)cc1` returned a melting point of 204 °C.

As to `Cc1ccc(N=C=S)c(C)c1COC(=O)[C@H]1[C@@H](C=C(Cl)C(F)(F)F)C1(C)C` (relative stereo), the melting point worked out at 60 °C.

In the case of `CNC(=O)c1c(NC(=O)CCl)c(OC)c(C(=O)NC)c([N+](=O)[O-])c1OC`, the melting point lay in the range of 259 to 260 °C. With `CSC1Oc2cccc3cccc(c23)C1=O` (centres undefined), the melting point lay in the range of 89 to 91 °C. In turn, `CNS(=O)(=O)c1cc(C(=O)c2c(C)oc3ccccc23)ccc1Cl` returned a melting point of 146 °C. For the compound `Cc1ccc(C(=O)NC(C)(C)C)cn1`, the melting point lay in the range of 104 to 105 °C. Compound `O=c1c(Br)cc(Cc2ccccc2)cn1Cc1ccccc1` registered a melting point of 89 to 90 °C. Compound `CC(C)CCS(=O)(=O)NC(=O)/C=C/c1cc(C2CC2)nn1Cc1ccc(C(F)(F)F)cc1Cl` registered a melting point of 145 to 147 °C. To `O=C(CC(F)=C(F)F)NS(=O)(=O)C(F)(F)F` belongs 115 to 120 °C.

Turning to `COC(=O)c1ccc(Oc2ccccc2C=O)c([N+](=O)[O-])c1`, the melting point lay within 109 to 110 °C. In the case of `Cc1nc2c(C#N)cnn2c(Cl)c1CCCl`, the melting point lay within 143 to 145 °C. `CC(C)(C)OC(=O)CCOCCCc1cccc(-c2nc(=O)c3ccccc3s2)n1`: the melting point was in the range of 71 to 71.9 °C. In turn, `COc1cc(C(=O)P2(=O)Oc3ccccc3-c3ccccc32)cc(OC)c1OC` (centres undefined) had a melting point of 147 to 149 °C.

With `CCOC(=O)c1cnc(Nc2cccc(OC)c2)[nH]c1=O`, the melting point lay within 233 to 234 °C. The compound `CC(C)CCCC(C)C1C(O)CC2C3=CC=C4C(C)(C)C(O)CCC4(C)C3CCC21C` (centres undefined) displayed a melting point of 171 to 173 °C.

`O=C(C=Cc1ccc(O)cc1)N1CCc2c([nH]c3ccccc23)C1c1ccc2c(c1)CCO2` (centres undefined) yielded a melting point of 189 °C. `CCCOc1ncc(S(C)(=O)=O)cc1-c1nc2c(CC)nn(C[C@@H]3CCCN3C(=O)OC(C)(C)C)c2c(=O)[nH]1` yielded a melting point of 98 to 104 °C.

`O[C@@H](CNCCOc1ccc2oc(-c3ccon3)cc2c1)COc1ccccc1Cl` yielded a melting point of 93 to 96 °C. `CC1(C)CN(CC2Cc3nccnc3C2)c2nc(-c3ccncn3)cc(=O)n2C1` gave a melting point of 193 to 195 °C.

`CC(C)Oc1ccc(CCCCOc2cc(CCC(=O)O)n(C)n2)c(Oc2ncc(C(F)(F)F)cc2Cl)c1`: the melting point fell in the range of 156 to 157 °C.

On to `CC1(c2ccc(S(C)(=O)=O)cc2)OC=C(Br)C(=O)C1Oc1ccc(F)cc1F` (centres undefined), for which the melting point is 230 °C. In turn, `CC(C)Oc1ccc2c(Cl)nc(C(=O)NCCO)c(O)c2c1` showed a melting point of 155 to 156 °C.

`O=C(O)c1ccc2c(c1)OC(c1cc(F)cc(F)c1)(c1cc(F)cc(F)c1)O2` returned a melting point of 96 °C. As to `O=c1c2ccccc2c(Br)c(Br)c2ccc(Br)cc12`, the melting point was 173 to 175 °C. Take `CC1CCC(C(C)C)C(C(=O)NC(C)(C)CO)C1` (centres undefined): the melting point is 123 °C.

Take `CCOCCNc1nc(Cl)nc(Cl)n1`: the melting point amounted to 77 °C. Next, `COCC(F)Cn1ccnc1[N+](=O)[O-]` (centres undefined): 39 to 44 °C; `Oc1ccc2c(-c3ccc(Cl)cc3)noc2c1`: 203 °C.

In the case of `Cc1cc(C)nc(Sc2ccnc3cc(Cl)ccc23)n1`, the melting point fell in the range of 127 to 130 °C. Turning to `Cc1cc(C)nc(NC(=O)NS(=O)(=O)c2ccccc2C2(O)CCC2)n1`, the melting point fell in the range of 148 to 150 °C.

As for `CC1(C)CCCC(C)(C)N1Cc1ccc2cc(NC(=O)c3ccc(-c4ccc(Cl)cc4)nc3)ccc2n1`, the melting point lay within 258 to 259 °C. For `O=c1[nH]nc(Br)c2ccccc12`, the melting point was in the range of 268 to 271 °C. `CCCCCCCCCCCCCCc1ccc(O)c(C(=O)CCCCC)c1` came in with a melting point of 41 to 42 °C. For the compound `CCCc1c(O)ccc2oc(Cc3ccc(F)cc3)c(C)c12`, the melting point lay in the range of 121 to 123 °C. As to `COC(=O)C(=Cc1cccc(-c2ccc(Cl)cc2)c1)NC(C)=O`, the melting point is 168 °C. To `NC(=O)NN=Cc1ccc(OC2C3CC4CC(C3)CC2C4)cc1` (centres undefined) belongs 226 to 228 °C; to `COc1ccc(CC2NCCCC2C(C)O)cc1` (centres undefined), more than 300 °C.

The compound `CCOC(=O)c1cc2cc(Cl)c(Cl)cc2[nH]1` displayed a melting point of 215 to 218 °C. Compound `O=C(O)c1cc(/C=C/c2ccc(O)cc2)ccc1O` had a melting point of 241 to 243 °C. Turning to `Cc1c(-c2ccco2)c(N2CC[C@H](N(C)C)C2)c2oc(C3CC3)nc2c1C#N`, the melting point lay within 158 to 159 °C. For `CC(C)[C@H](NC(=O)Cc1csc(N(C)C)n1)C(=O)N[C@@H](Cc1ccccc1)C[C@H](O)[C@H](Cc1ccccc1)NC(=O)Cc1cncs1`, the melting point fell in the range of 162 to 165 °C.

Compound `Cc1csc2c(-c3ccccc3)c(-c3ccc(Cl)s3)c(CC(=O)O)n12` yielded a melting point of 182 to 183 °C.

With `O=S(=O)(/C=C/c1ccc(F)cc1F)CS(=O)(=O)/C=C/c1ccc(F)cc1F`, the melting point was in the range of 193 to 195 °C. The compound `O=C(OCCc1ccccc1)c1ccc2cc(O)c(O)cc2c1` yielded a melting point of 175 to 176 °C.

In the case of `CC(C)(C)N1C(=O)c2cnc(-c3ccccc3)nc2Nc2ccccc21`, the melting point lay in the range of 221 to 222 °C. For the compound `CCOC(=O)NC(=S)CNc1ccc(C(=O)OC)c(S(=O)(=O)NC(C)(C)C)c1`, the melting point was 110 °C. In the case of `O=[N+]([O-])c1ccccc1N1CCCc2ccccc21`, the melting point was 69 to 71 °C.
